Source: the supplement of paper PMC11208160

Assay: recombinant UMI read abundance after kanamycin selection (control-corrected) (log10(CPM+1)); higher = more efficient recombination; extreme values may be limits of the assay; sequences stand for … in AGTGCAGAGAAAATCGGCCAGTTTTCTCTGCCTGCAGTCCGCATGCCGTGGGACCCCTTGGGTTCTAACCTGTTGCCTAGATTTATGCAGCGGACTGCCTTTCTCCCAAAGTGATAAACCGG…AGGTTGGTTTCACT; site = the 11-nt donor
Procedure, shortened: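 The measure is log10(CPM+1) for recombinant UMIs. These were PCR-amplified across the donor–target junction and sequenced after Escherichia coli carrying a donor and donor-binding-loop pair library and a target plasmid with T7-inducible IS621 bridge recombinase was plated on IPTG (0.07 mM) plus kanamycin or unselected. CPM were averaged over two replicates and scaled by control-derived factors.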
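Note: IS621 bridge recombinase in Escherichia coli cells against a fixed T5 target plasmid.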

GCTCGTACATGGACCGGTTTTCCCGGTAATCCGTATTTGAT (site GCTCGTACTAT)
recombinant UMI read abundance (log10): 1.1

GCTCTGCCATGGACCGGTTTTCCCGGTAATCCGTATTTGCG (site GCTCTGCCTCG)
recombinant UMI read abundance (log10): 0.0154

GCTGCAGCATGGACCGGTTTTCCCGGTAATCCGTATTTGTC (site GCTGCAGCTGA)
recombinant UMI read abundance (log10): 2.59

GCTGGAACATGGACCGGTTTTCCCGGTAATCCGTATTTGAC (site GCTGGAACTGT)
recombinant UMI read abundance (log10): 1.62

GCTGTGTCATGGACCGGTTTTCCCGGTAATCCGTATTTGGA (site GCTGTGTCTTC)
recombinant UMI read abundance (log10): 1.46

GCTTAGACATGGACCGGTTTTCCCGGTAATCCGTATTTGGC (site GCTTAGACTGC)
recombinant UMI read abundance (log10): 2.37

GCTTCCCCATGGACCGGTTTTCCCGGTAATCCGTATTTGAT (site GCTTACCCTAT)
recombinant UMI read abundance (log10): 0.0108

GCTTCCCCATGGACCGGTTTTCCCGGTAATCCGTATTTGAT (site GCTTCCCCTAT)
recombinant UMI read abundance (log10): 0.569

GCTTCCCCATGGACCGGTTTTCCCGGTAATCCGTATTTGAT (site GCTTGCCCTAT)
recombinant UMI read abundance (log10): 0.00758

GCTTCCCCATGGACCGGTTTTCCCGGTAATCCGTATTTGAT (site GCTTTCCCTAT)
recombinant UMI read abundance (log10): 0.028

GCTTCCCCATGGACCGGTTTTCCCGGTAATCCGTATTTGCA (site GCTTCCCCTTG)
recombinant UMI read abundance (log10): 1.15

GCTTCTGCATGGACCGGTTTTCCCGGTAATCCGTATTTGCC (site GCTACTGCTGG)
recombinant UMI read abundance (log10): 0.647

GCTTCTGCATGGACCGGTTTTCCCGGTAATCCGTATTTGCC (site GCTCCTGCTGG)
recombinant UMI read abundance (log10): 1.82

GCTTCTGCATGGACCGGTTTTCCCGGTAATCCGTATTTGCC (site GCTGCTGCTGG)
recombinant UMI read abundance (log10): 0

GCTTCTGCATGGACCGGTTTTCCCGGTAATCCGTATTTGCC (site GCTTCTGCTGG)
recombinant UMI read abundance (log10): 1.86

GCTTGCCCATGGACCGGTTTTCCCGGTAATCCGTATTTGGT (site GCTTGCCCTAA)
recombinant UMI read abundance (log10): 0.00835

GCTTGCCCATGGACCGGTTTTCCCGGTAATCCGTATTTGGT (site GCTTGCCCTAC)
recombinant UMI read abundance (log10): 0.017

GCTTGCCCATGGACCGGTTTTCCCGGTAATCCGTATTTGGT (site GCTTGCCCTAG)
recombinant UMI read abundance (log10): 0

GCTTGCCCATGGACCGGTTTTCCCGGTAATCCGTATTTGGT (site GCTTGCCCTAT)
recombinant UMI read abundance (log10): 0

GCTTTACCATGGACCGGTTTTCCCGGTAATCCGTATTTGTT (site GCTTTACCTAA)
recombinant UMI read abundance (log10): 0.0408

GCTTTAGCATGGACCGGTTTTCCCGGTAATCCGTATTTGTT (site GCTTTAGCTAA)
recombinant UMI read abundance (log10): 0.00318

GGAAATCCATGGACCGGTTTTCCCGGTAATCCGTATTTGAA (site GGAAATCCTTT)
recombinant UMI read abundance (log10): 0.994

GGAAATCCATGGACCGGTTTTCCCGGTAATCCGTATTTGAA (site GGCAATCCTTT)
recombinant UMI read abundance (log10): 0

GGAAATCCATGGACCGGTTTTCCCGGTAATCCGTATTTGAA (site GGGAATCCTTT)
recombinant UMI read abundance (log10): 0

GGAAATCCATGGACCGGTTTTCCCGGTAATCCGTATTTGAA (site GGTAATCCTTT)
recombinant UMI read abundance (log10): 0

GGAAATCCATGGACCGGTTTTCCCGGTAATCCGTATTTGGT (site GGAAATCCTAC)
recombinant UMI read abundance (log10): 0

GGAACGGCATGGACCGGTTTTCCCGGTAATCCGTATTTGGA (site GGAACGGCTTC)
recombinant UMI read abundance (log10): 1.09

GGAAGCTCATGGACCGGTTTTCCCGGTAATCCGTATTTGTT (site GGAAGCTCTAA)
recombinant UMI read abundance (log10): 2.26

GGAATGGCATGGACCGGTTTTCCCGGTAATCCGTATTTGGT (site GGAATGGCTAC)
recombinant UMI read abundance (log10): 1.5

GGAATGGCATGGACCGGTTTTCCCGGTAATCCGTATTTGGT (site GGACTGGCTAC)
recombinant UMI read abundance (log10): 0.00772

GGAATGGCATGGACCGGTTTTCCCGGTAATCCGTATTTGGT (site GGAGTGGCTAC)
recombinant UMI read abundance (log10): 0.00394

GGAATGGCATGGACCGGTTTTCCCGGTAATCCGTATTTGGT (site GGATTGGCTAC)
recombinant UMI read abundance (log10): 0.00922

GGAATTGCATGGACCGGTTTTCCCGGTAATCCGTATTTGCC (site GGAATTGCTGG)
recombinant UMI read abundance (log10): 0

GGACACGCATGGACCGGTTTTCCCGGTAATCCGTATTTGCT (site GGACACGCTAG)
recombinant UMI read abundance (log10): 2.59

GGACAGACATGGACCGGTTTTCCCGGTAATCCGTATTTGCC (site GGAAAGACTGG)
recombinant UMI read abundance (log10): 0

GGACAGACATGGACCGGTTTTCCCGGTAATCCGTATTTGCC (site GGACAGACTGG)
recombinant UMI read abundance (log10): 2.42

GGACAGACATGGACCGGTTTTCCCGGTAATCCGTATTTGCC (site GGAGAGACTGG)
recombinant UMI read abundance (log10): 0

GGACAGACATGGACCGGTTTTCCCGGTAATCCGTATTTGCC (site GGATAGACTGG)
recombinant UMI read abundance (log10): 1.84

GGACAGTCATGGACCGGTTTTCCCGGTAATCCGTATTTGTC (site GGACAGTCTGA)
recombinant UMI read abundance (log10): 3.04

GGACCAACATGGACCGGTTTTCCCGGTAATCCGTATTTGTA (site GGACCAACTTA)
recombinant UMI read abundance (log10): 1.09

GGACCAACATGGACCGGTTTTCCCGGTAATCCGTATTTGTA (site GGCCCAACTTA)
recombinant UMI read abundance (log10): 0.00566

GGACCAACATGGACCGGTTTTCCCGGTAATCCGTATTTGTA (site GGGCCAACTTA)
recombinant UMI read abundance (log10): 0.0083

GGACCAACATGGACCGGTTTTCCCGGTAATCCGTATTTGTA (site GGTCCAACTTA)
recombinant UMI read abundance (log10): 0.0428

GGACGTACATGGACCGGTTTTCCCGGTAATCCGTATTTGTG (site GGACGTACTCA)
recombinant UMI read abundance (log10): 1.09

GGACTGGCATGGACCGGTTTTCCCGGTAATCCGTATTTGGT (site GGAATGGCTAC)
recombinant UMI read abundance (log10): 0.00409

GGACTGGCATGGACCGGTTTTCCCGGTAATCCGTATTTGGT (site GGACTGGCTAC)
recombinant UMI read abundance (log10): 0.371

GGACTGGCATGGACCGGTTTTCCCGGTAATCCGTATTTGGT (site GGAGTGGCTAC)
recombinant UMI read abundance (log10): 0.0324

GGACTGGCATGGACCGGTTTTCCCGGTAATCCGTATTTGGT (site GGATTGGCTAC)
recombinant UMI read abundance (log10): 0.0234

GGACTTCCATGGACCGGTTTTCCCGGTAATCCGTATTTGGT (site GGACTTCCTAC)
recombinant UMI read abundance (log10): 1.16

GGAGAGACATGGACCGGTTTTCCCGGTAATCCGTATTTGCC (site GGAAAGACTGG)
recombinant UMI read abundance (log10): 0

GGAGAGACATGGACCGGTTTTCCCGGTAATCCGTATTTGCC (site GGACAGACTGG)
recombinant UMI read abundance (log10): 0

GGAGAGACATGGACCGGTTTTCCCGGTAATCCGTATTTGCC (site GGAGAGACTGG)
recombinant UMI read abundance (log10): 0

GGAGAGACATGGACCGGTTTTCCCGGTAATCCGTATTTGCC (site GGATAGACTGG)
recombinant UMI read abundance (log10): 0

GGAGATTCATGGACCGGTTTTCCCGGTAATCCGTATTTGAC (site GGAGATTCTGT)
recombinant UMI read abundance (log10): 0

GGAGCACCATGGACCGGTTTTCCCGGTAATCCGTATTTGCA (site GGAGCACCTTG)
recombinant UMI read abundance (log10): 0

GGAGCACCATGGACCGGTTTTCCCGGTAATCCGTATTTGCA (site GGCGCACCTTG)
recombinant UMI read abundance (log10): 0

GGAGCACCATGGACCGGTTTTCCCGGTAATCCGTATTTGCA (site GGGGCACCTTG)
recombinant UMI read abundance (log10): 0

GGAGCACCATGGACCGGTTTTCCCGGTAATCCGTATTTGCA (site GGTGCACCTTG)
recombinant UMI read abundance (log10): 0.00599

GGAGCCCCATGGACCGGTTTTCCCGGTAATCCGTATTTGGG (site GGAGCCCCTCC)
recombinant UMI read abundance (log10): 0.00903

GGAGGCCCATGGACCGGTTTTCCCGGTAATCCGTATTTGCC (site GGAGGCCCTGG)
recombinant UMI read abundance (log10): 0

GGAGGTACATGGACCGGTTTTCCCGGTAATCCGTATTTGAC (site GAAGGTACTGT)
recombinant UMI read abundance (log10): 0.759

GGAGGTACATGGACCGGTTTTCCCGGTAATCCGTATTTGAC (site GCAGGTACTGT)
recombinant UMI read abundance (log10): 0.553

GGAGGTACATGGACCGGTTTTCCCGGTAATCCGTATTTGAC (site GGAGGTACTGT)
recombinant UMI read abundance (log10): 1.39

GGAGGTACATGGACCGGTTTTCCCGGTAATCCGTATTTGAC (site GTAGGTACTGT)
recombinant UMI read abundance (log10): 0

GGAGTAGCATGGACCGGTTTTCCCGGTAATCCGTATTTGGT (site GGAGTAGCTAC)
recombinant UMI read abundance (log10): 1.18

GGAGTAGCATGGACCGGTTTTCCCGGTAATCCGTATTTGGT (site GGAGTCGCTAC)
recombinant UMI read abundance (log10): 0.0165

GGAGTAGCATGGACCGGTTTTCCCGGTAATCCGTATTTGGT (site GGAGTGGCTAC)
recombinant UMI read abundance (log10): 0.49

GGAGTAGCATGGACCGGTTTTCCCGGTAATCCGTATTTGGT (site GGAGTTGCTAC)
recombinant UMI read abundance (log10): 0

GGAGTATCATGGACCGGTTTTCCCGGTAATCCGTATTTGAC (site CTAGTATCTGT)
recombinant UMI read abundance (log10): 0

GGAGTATCATGGACCGGTTTTCCCGGTAATCCGTATTTGAC (site GGAGTATCTGT)
recombinant UMI read abundance (log10): 2.66

GGAGTCGCATGGACCGGTTTTCCCGGTAATCCGTATTTGCG (site GAAGTCGCTCG)
recombinant UMI read abundance (log10): 0.00287

GGAGTCGCATGGACCGGTTTTCCCGGTAATCCGTATTTGCG (site GCAGTCGCTCG)
recombinant UMI read abundance (log10): 0.021

GGAGTCGCATGGACCGGTTTTCCCGGTAATCCGTATTTGCG (site GGAGTCGCTCG)
recombinant UMI read abundance (log10): 1.28

GGAGTCGCATGGACCGGTTTTCCCGGTAATCCGTATTTGCG (site GTAGTCGCTCG)
recombinant UMI read abundance (log10): 0.0226

GGAGTCTCATGGACCGGTTTTCCCGGTAATCCGTATTTGTC (site GGAGTCTCTGA)
recombinant UMI read abundance (log10): 2.36
